{
  "source": "patent US20140303105A1",
  "about": "“Primycin and components thereof for use in the treatment or prevention of infections caused by specific pathogens” (PANNONPHARMA GYÓGYSZERGYÁRTÓ ZRT., priority 2011, published 2014)",
  "key": {"[1]": {"tested_on": "Staphylococcus epidermidis", "conditions": "by Bryskier; cited from earlier work"}, "[2]": {"tested_on": "Enterococcus sp., decreased vancomycin susceptibility", "assay": "Standard microdilution susceptibility test, clinical isolates", "assay_type": "cell-based", "conditions": "5 clinical isolates"}, "[3]": {"tested_on": "Coagulase-negative Staphylococus sp., methicillin susceptible", "assay": "Standard microdilution susceptibility test, clinical isolates", "assay_type": "cell-based", "conditions": "10 clinical isolates"}, "[4]": {"tested_on": "Enterobacter cloacae", "conditions": "by Bryskier; cited from earlier work"}, "[5]": {"tested_on": "Micrococcus", "conditions": "by Bryskier; cited from earlier work"}, "[6]": {"tested_on": "Escherichia coli", "conditions": "by Bryskier; cited from earlier work"}, "[7]": {"tested_on": "Serotype β Streptococcus 8252", "conditions": "cited from earlier work"}, "[8]": {"tested_on": "Corynebacterium spp., Enterobacteriaceae species, Pseudomonas aeruginosa, yeasts and dermatophytes", "conditions": "Bryskier 2005; cited from earlier work"}, "[9]": {"tested_on": "Bacillus spp. and Micrococcus spp.", "conditions": "Bryskier 2005; cited from earlier work"}, "[10]": {"tested_on": "Gram-negative species", "conditions": "crystalline primycin and amorphous predecessor; Uri and Actor 1979; cited from earlier work"}, "[11]": {"tested_on": "S. aureus ATCC 25923", "conditions": "Uri and Actor 1979; cited from earlier work"}, "[12]": {"tested_on": "erythromycin-sensitive Staphylococcus spp. strains", "conditions": "collection of 279 strains; cited from earlier work"}, "[13]": {"tested_on": "Streptococcus viridans sp.", "assay": "Standard microdilution susceptibility test, clinical isolates", "assay_type": "cell-based", "conditions": "20 clinical isolates"}, "[14]": {"tested_on": "Staphylococcus capitis", "conditions": "cited from earlier work"}, "[15]": {"tested_on": "Diphteroides 8264", "conditions": "cited from earlier work"}, "[16]": {"tested_on": "Propionibacterium acnes", "conditions": "cited from earlier work"}, "[17]": {"tested_on": "Propionibacterium acnes", "conditions": "by Bryskier; cited from earlier work"}, "[18]": {"tested_on": "E. casseliflavus", "assay": "Microdilution MIC, Enterococcus isolates with van resistance genes", "assay_type": "cell-based", "method": "(§1) Identification and characterization of resistance patterns of these bacteria were performed by standard methods.\n(§2) When forming the test groups we attached great importance to the increasing incidence of drug-resistant microbes causing therapeutic problems. Most important of them are methicillin-resistant Staphylococcus aureus (MRSA), methicillin-resistant coagulase-negative Staphylococcus spp. (MRCoNS), penicillin-resistant Streptococcus pneumoniae (pneumococcus), vancomycin-resistant Enterococcus spp. (VRE). Pneumococcus isolates represented various serotypes, VRE isolates belonged to various species. Moreover, vancomycin-resistance of VRE isolates was based on different genetic backgrounds. Antibiotic-resistant strains were also represented among international reference strains, for example methicillin-resistant Staphylococcus aureus ATCC 43300 (MRSA), Staphylococcus aureus with decreased vancomycin susceptibility ATCC 700698 and 700699 (vancomycin intermediate Staphylococcus aureus—VISA), mupirocin-resistant Staphylococcus aureus ATCC BAA1708 and vancomycin-resistant Enterococcus faecalis ATCC 51299 (VRE).\n(§3) Susceptibility tests were performed according to the standard microdilution method (NCCLS (CLSI) M7-A7).\n(§4) The lowest concentration at which no bacterial growth was observed after the incubation period is the Minimal Inhibitory Concentration (MIC). The MIC value is inversely proportional to the antimicrobial efficacy. MIC values of antimicrobial agents can differ by species or even by bacterial strains within species."}, "[19]": {"tested_on": "E. faecium", "assay": "Microdilution MIC, Enterococcus isolates with van resistance genes", "assay_type": "cell-based", "conditions": "resistance gene van B", "method": "as §1, §2, §3, §4"}, "[20]": {"tested_on": "E. faecalis", "assay": "Microdilution MIC, Enterococcus isolates with van resistance genes", "assay_type": "cell-based", "method": "as §1, §2, §3, §4"}, "[21]": {"tested_on": "Escherichia coli B 1218", "conditions": "cited from earlier work"}, "[22]": {"tested_on": "Streptococcus mitis 5728", "conditions": "cited from earlier work"}, "[23]": {"tested_on": "S. aureus", "conditions": "by Bryskier; cited from earlier work"}, "[24]": {"tested_on": "Coagulase-negative Staphylococus sp., methicillin resistant", "assay": "Standard microdilution susceptibility test, clinical isolates", "assay_type": "cell-based", "conditions": "10 clinical isolates"}, "[25]": {"tested_on": "Enterobacter cloacae B 520", "conditions": "cited from earlier work"}, "[26]": {"tested_on": "enterococci and S. pyogenes", "conditions": "Bryskier 2005; cited from earlier work"}, "[27]": {"tested_on": "Staphylococcus aureus ATCC 25923", "conditions": "cited from earlier work"}, "[28]": {"tested_on": "S. aureus ATCC 25923", "conditions": "by Bryskier; cited from earlier work"}, "[29]": {"tested_on": "Streptococcus pneumoniae, penicillin susceptible", "assay": "Standard microdilution susceptibility test, clinical isolates", "assay_type": "cell-based", "conditions": "for MIC: single isolate"}, "[30]": {"tested_on": "Staphylococcus aureus 7503", "conditions": "cited from earlier work"}, "[31]": {"tested_on": "Streptococcus mitis", "conditions": "by Bryskier; cited from earlier work"}, "[32]": {"tested_on": "Staphylococcus aureus, methicillin resistant", "assay": "Standard microdilution susceptibility test, clinical isolates", "assay_type": "cell-based", "conditions": "10 clinical isolates"}, "[33]": {"tested_on": "erythromycin-resistant staphylococci", "conditions": "71 strains; cited from earlier work"}},
  "note": "Where two headings read alike, the source gives them in different places.",
  "data": [
    {"substance": "Primycin", "values": [
      {"measurement": "MIC", "setting": "[1]", "result": 0.78, "unit": "µg/mL"},
      {"measurement": "MIC Range", "setting": "[2]", "result": "0.25 to 0.5", "unit": "µg/mL"},
      {"measurement": "Ratio of Sensitive/Total", "setting": "[2]", "result": "5/5"},
      {"measurement": "MIC 50%", "setting": "[3]", "result": 0.03, "unit": "µg/mL"},
      {"measurement": "MIC 90%", "setting": "[3]", "result": 0.06, "unit": "µg/mL"},
      {"measurement": "MIC Range", "setting": "[3]", "result": "0.03 to 0.06", "unit": "µg/mL"},
      {"measurement": "Ratio of Sensitive/Total", "setting": "[3]", "result": "10/10"},
      {"measurement": "MIC", "setting": "[4]", "result": 50, "unit": "µg/mL"},
      {"measurement": "MIC", "setting": "[5]", "result": 0.78, "unit": "µg/mL"},
      {"measurement": "MIC", "setting": "[6]", "result": 50, "unit": "µg/mL"},
      {"measurement": "MIC", "setting": "[7]", "result": 1.56, "unit": "µg/mL"},
      {"measurement": "efficacy", "setting": "[8]", "result": "ineffective"},
      {"measurement": "efficacy", "setting": "[9]", "result": "effective"},
      {"measurement": "efficacy against Gram-negative species", "setting": "[10]", "result": "ineffective"},
      {"measurement": "MIC (not inhibited at the highest concentration tested)", "setting": "[11]", "result": "> 2", "unit": "µg/mL"},
      {"measurement": "share of strains primycin-resistant (MIC≧5 mg/L)", "setting": "[12]", "result": 1, "unit": "%"},
      {"measurement": "MIC 50%", "setting": "[13]", "result": 1, "unit": "µg/mL"},
      {"measurement": "MIC 90%", "setting": "[13]", "result": 1, "unit": "µg/mL"},
      {"measurement": "MIC Range", "setting": "[13]", "result": "0.5 to 1", "unit": "µg/mL"},
      {"measurement": "Ratio of Sensitive/Total", "setting": "[13]", "result": "20/20"},
      {"measurement": "MIC", "setting": "[14]", "result": 0.78, "unit": "µg/mL"},
      {"measurement": "MIC", "setting": "[15]", "result": 50.0, "unit": "µg/mL"},
      {"measurement": "MIC", "setting": "[16]", "result": "<0.1", "unit": "µg/mL"},
      {"measurement": "MIC", "setting": "[17]", "result": "<0.1", "unit": "µg/mL"},
      {"measurement": "MIC", "setting": "[18]; resistance gene van C1", "result": 0.5, "unit": "µg/mL"},
      {"measurement": "MIC", "setting": "[18]; resistance gene van C2", "result": 0.5, "unit": "µg/mL"},
      {"measurement": "MIC", "setting": "[19]", "result": 0.25, "unit": "µg/mL"},
      {"measurement": "MIC", "setting": "[20]; resistance gene van A", "result": 0.5, "unit": "µg/mL"},
      {"measurement": "MIC", "setting": "[20]; resistance gene van C1", "result": 0.5, "unit": "µg/mL"},
      {"measurement": "MIC", "setting": "[21]", "result": 50.0, "unit": "µg/mL"},
      {"measurement": "MIC", "setting": "[22]", "result": 50.0, "unit": "µg/mL"},
      {"measurement": "MIC", "setting": "[23]", "result": 0.39, "unit": "µg/mL"},
      {"measurement": "MIC 50%", "setting": "[24]", "result": 0.06, "unit": "µg/mL"},
      {"measurement": "MIC 90%", "setting": "[24]", "result": 0.06, "unit": "µg/mL"},
      {"measurement": "MIC Range", "setting": "[24]", "result": "0.03 to 0.06", "unit": "µg/mL"},
      {"measurement": "Ratio of Sensitive/Total", "setting": "[24]", "result": "10/10"},
      {"measurement": "MIC", "setting": "[25]", "result": 50.0, "unit": "µg/mL"},
      {"measurement": "efficacy", "setting": "[26]", "result": "moderate efficacy"},
      {"measurement": "MIC", "setting": "[27]", "result": 25.0, "unit": "µg/mL"},
      {"measurement": "MIC", "setting": "[28]", "result": 25, "unit": "µg/mL"},
      {"measurement": "MIC 50%", "setting": "[29]; 10 clinical isolates", "result": 0.5, "unit": "µg/mL"},
      {"measurement": "MIC 90%", "setting": "[29]; 10 clinical isolates", "result": 0.5, "unit": "µg/mL"},
      {"measurement": "MIC Range", "setting": "[29]; 10 clinical isolates", "result": "0.25 to 1", "unit": "µg/mL"},
      {"measurement": "Ratio of Sensitive/Total", "setting": "[29]; 10 clinical isolates", "result": "10/10"},
      {"measurement": "MIC", "setting": "[29]; serotype 3", "result": 0.5, "unit": "µg/mL"},
      {"measurement": "MIC", "setting": "[29]; serotype 4", "result": 0.5, "unit": "µg/mL"},
      {"measurement": "MIC", "setting": "[29]; serotype 7F", "result": 0.5, "unit": "µg/mL"},
      {"measurement": "MIC", "setting": "[29]; serotype 8", "result": 0.5, "unit": "µg/mL"},
      {"measurement": "MIC", "setting": "[29]; serotype 9(V)", "result": 0.5, "unit": "µg/mL"},
      {"measurement": "MIC", "setting": "[29]; serotype 11(A)", "result": 0.5, "unit": "µg/mL"},
      {"measurement": "MIC", "setting": "[29]; serotype 19F", "result": 0.5, "unit": "µg/mL"},
      {"measurement": "MIC", "setting": "[29]; serotype 23(F)", "result": 0.25, "unit": "µg/mL"},
      {"measurement": "MIC", "setting": "[30]", "result": 0.39, "unit": "µg/mL"},
      {"measurement": "MIC", "setting": "[31]", "result": 50, "unit": "µg/mL"},
      {"measurement": "MIC 50%", "setting": "[32]", "result": 0.06, "unit": "µg/mL"},
      {"measurement": "MIC 90%", "setting": "[32]", "result": 0.06, "unit": "µg/mL"},
      {"measurement": "MIC Range", "setting": "[32]", "result": "0.06-0.06 mg/L"},
      {"measurement": "Ratio of Sensitive/Total", "setting": "[32]", "result": "10/10"},
      {"measurement": "share of strains presenting primycin resistance", "setting": "[33]", "result": 13, "unit": "%"}
    ]}
  ]
}
